Laboratory results taken from paper PMC9967275, “Screening the Pathogen Box to Discover and Characterize New Cruzain and TbrCatL Inhibitors” (Pathogens, 2023).

Key:
cruzain = cruzain (Trypanosoma cruzi, UniProt P25779); test: biochemical; settings: for Cruzain 0’ Inhibition / Cruzain 10’ Inhibition: sheet "Screening results"
How it was run: (§1)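 Recombinant enzymes assayed by Z-Phe-Arg-AMC cleavage at 25 °C, fluorescence 340/440 nm over 5–7 min, with 10 min or no enzyme–compound preincubation.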

TbrCatL = biological target: T1, TbrCatL (Trypanosoma brucei rhodesiense, UniProt Q95PM0); test: TbrCatL enzymatic inhibition assay (cleavage of fluorogenic substrate Z-FR-AMC); assay type: biochemical; settings: for TbrCatL 0’ Inhibition / TbrCatL 10’ Inhibition: sheet "Screening results"
T1 construct: Conor Caffrey (University of California San Diego)
T1 sequence (Q95PM0 entry or part of it): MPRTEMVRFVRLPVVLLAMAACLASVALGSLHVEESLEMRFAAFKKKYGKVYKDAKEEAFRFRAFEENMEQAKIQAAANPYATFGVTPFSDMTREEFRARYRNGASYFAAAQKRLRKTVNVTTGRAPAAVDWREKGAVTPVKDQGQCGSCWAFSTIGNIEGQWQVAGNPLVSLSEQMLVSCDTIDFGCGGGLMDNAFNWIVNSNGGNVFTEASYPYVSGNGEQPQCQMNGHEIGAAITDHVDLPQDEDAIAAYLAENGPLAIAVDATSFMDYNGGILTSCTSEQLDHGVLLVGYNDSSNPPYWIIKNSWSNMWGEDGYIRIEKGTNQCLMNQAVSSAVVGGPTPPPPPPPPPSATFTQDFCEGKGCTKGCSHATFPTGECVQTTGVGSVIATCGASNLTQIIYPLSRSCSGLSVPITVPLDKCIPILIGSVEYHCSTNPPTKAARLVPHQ
How it was run: as §1

[1] = 0’ (no pre-incubation), sheet Screening results
[2] = 10’ (pre-incubation), sheet Screening results
[3] = 0’ (pre-incubation time), Pathogen Box screening results
[4] = 10’ (pre-incubation time), Pathogen Box screening results
[5] = 5 µM, PB library solutions, 10 min pre-incubation, vs DMSO control

Sequence of cruzain (P25779 123-337 limits assumed): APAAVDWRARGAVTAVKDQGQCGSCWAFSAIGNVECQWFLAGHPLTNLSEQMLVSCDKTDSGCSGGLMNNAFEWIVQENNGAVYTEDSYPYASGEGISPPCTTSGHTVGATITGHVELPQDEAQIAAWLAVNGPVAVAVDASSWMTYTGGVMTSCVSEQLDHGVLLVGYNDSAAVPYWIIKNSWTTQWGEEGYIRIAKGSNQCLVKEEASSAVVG

SMILES | Cruzain Inhibition 0’ (cruzain; [1]) [%] | Cruzain Inhibition 10’ (cruzain; [2]) [%] | TbrCatL Inhibition 0’ (TbrCatL; [1]) [%] | TbrCatL Inhibition 10’ (TbrCatL; [2]) [%] | also measured
Cc1ccc(NC(=O)CC2COc3ccccc3O2)cc1Cl (stereo not shown) [MMV676431] | 0.5 | 4.3 | 5 | 5 | 
Cc1ccc2nc(Cl)c(CNCc3cccs3)cc2c1 [MMV676439] | -0.1 | 6.5 | 5.4 | 5 | 
CC(C)c1ncc(-c2ccncc2)c(C2CCC(CNC(=O)c3cccnc3)CC2)n1 (stereo not shown) [MMV676442] | 4 | 1.2 | -7.5 | -6 | 
O=C(NC1CCCCC1)N1CCN(Cc2ccc3c(c2)OCO3)CC1 [MMV676444] | 0.4 | 5.5 | 9 | 8 | 
CCCn1c(CNc2ccccc2O)nc2ccccc21 [MMV676445] | 1.2 | 3.6 | 6 | 3.3 | 
CCc1nc2ccccc2n1CC(O)COc1cc(C)ccc1Cl (stereo not shown) [MMV676449] | 4.5 | 6 | 1.5 | 3.5 | 
CCOC(=O)c1cc(-c2csc(Nc3c(C)cc(C)cc3C)n2)on1 [MMV676461] | -2.6 | 4 | 6 | 15 | 
NC(CC(=O)c1ccc(Cl)cc1Cl)C(Cl)(Cl)Cl (stereo not shown) [MMV676468] |  |  |  |  | Cruzain 0’ Inhibition (cruzain; 0’ (pre-incubation time)): 2.5%; Cruzain 10’ Inhibition (cruzain; 10’ (pre-incubation time)): 0.4%; TbrCatL 0’ Inhibition (TbrCatL; 0’ (pre-incubation time)): -5%; TbrCatL 10’ Inhibition (TbrCatL; 10’ (pre-incubation time)): -2%
CCOc1ccc(OCC(=O)Nc2cc(C)cc(C)c2)cc1 [MMV676470] |  |  |  |  | Cruzain 0’ Inhibition (cruzain; 0’ (pre-incubation time)): 6%; Cruzain 10’ Inhibition (cruzain; 10’ (pre-incubation time)): 9%; TbrCatL 0’ Inhibition (TbrCatL; 0’ (pre-incubation time)): -0.9%; TbrCatL 10’ Inhibition (TbrCatL; 10’ (pre-incubation time)): 4%
COc1cccc(OC)c1C(=O)Nc1ccc(Cl)c(-c2nc3ccccc3s2)c1 [MMV676472] |  |  |  |  | Cruzain 0’ Inhibition (cruzain; 0’ (pre-incubation time)): 8%; Cruzain 10’ Inhibition (cruzain; 10’ (pre-incubation time)): 14%; TbrCatL 0’ Inhibition (TbrCatL; 0’ (pre-incubation time)): 4%; TbrCatL 10’ Inhibition (TbrCatL; 10’ (pre-incubation time)): -2%
COc1ccccc1OCCCCn1c(C2CC2)nc2ccccc21 [MMV676474] | -7 | -11 | -3.8 | -17 | 
Cc1cc(C)cc(COc2ccc3c(C)c(CCC(=O)O)c(=O)oc3c2C)c1 [MMV676476] | 1.9 | -3.3 | -17 | -2.6 | 
CCc1c(C)nc(-n2nc(C)cc2NC(=O)c2ccccc2SC)[nH]c1=O [MMV676477] | -0.2 | -11 | -4 | -17 | 
O=C(C1CCN(c2nnc(-n3cccc3)s2)CC1)N1CCC(Cc2ccccc2)CC1 [MMV676478] |  |  |  |  | Cruzain 0’ Inhibition (cruzain; 0’ (pre-incubation time)): 0.9%; Cruzain 10’ Inhibition (cruzain; 10’ (pre-incubation time)): 2.5%; TbrCatL 0’ Inhibition (TbrCatL; 0’ (pre-incubation time)): 2.2%; TbrCatL 10’ Inhibition (TbrCatL; 10’ (pre-incubation time)): -8%
COC(=O)c1c(NC(=O)c2cc3ccccc3oc2=O)sc2c1CCN(Cc1ccccc1)C2 [MMV676480] | 24 | 5.6 | 0.5 | -3.2 | 
O=C(Nc1n[nH]c(=S)s1)c1cc(Br)ccc1Cl [MMV676492] |  |  |  |  | Cruzain Inhibition 0’ (cruzain; [3]): 10%; Cruzain Inhibition 10’ (cruzain; [4]): 27%; TbrCatL Inhibition 0’ (TbrCatL; [3]): -16%; TbrCatL Inhibition 10’ (TbrCatL; [4]): 35%
O=C(Nc1nnc(-c2ccc(Cl)s2)o1)c1ccc(Cl)s1 [MMV676501] | -8 | -16 | -3.6 | -11 | 
Cc1ccc2oc(-c3cc(NC(=O)Cc4ccccc4)ccc3Cl)nc2c1 [MMV676509] | 21 | 5 | 11 | 12 | 
O=C(Nc1nc(-c2ccccn2)cs1)c1cncn1-c1ccccc1 [MMV676512] | -27 | -84 | -27 | -109 | Increase in the initial velocity of the reaction (%) 5 µM using PB samples Cruzain (cruzain; [5]): 84 ± 54%; Increase in the initial velocity of the reaction (%) 5 µM using solid samples Cruzain (cruzain; 5 µM, solid samples, 10 min pre-incubation, vs DMSO control): 14 ± 9%; Increase in the initial velocity of the reaction (%) 100 µM using solid samples Cruzain (cruzain; 100 µM, solid samples, 10 min pre-incubation, vs DMSO control): 24 ± 5%; Increase in the enzyme velocity in confirmatory assays (cruzain; solid samples, varying compound concentrations): no increase in the enzyme velocity; Increase in the initial velocity of the reaction (%) 5 µM using PB samples TbrCatL (TbrCatL; [5]): 109 ± 71%; Increase in initial velocity of substrate cleavage in comparison to the DMSO control (TbrCatL; TbrCatL 10′ inc, screening at 5 µM): 2 fold
O=C(c1cc2ccccc2o1)N1CCN(Cc2ccc3c(c2)OCO3)CC1 [MMV676520] | -1.2 | -3.3 | 5 | -4.7 | 

SMILES | Cruzain Inhibition 0’ (cruzain; [1]) [%] | Cruzain Inhibition 10’ (cruzain; [2]) [%] | TbrCatL Inhibition 0’ (TbrCatL; [1]) [%] | TbrCatL Inhibition 10’ (TbrCatL; [2]) [%] | also measured
Nc1cccnc1Nc1ccc(Cl)cc1 [MMV676524] |  |  |  |  | Cruzain 0’ Inhibition (cruzain; 0’ (pre-incubation time)): 4.7%; Cruzain 10’ Inhibition (cruzain; 10’ (pre-incubation time)): 13%; TbrCatL 0’ Inhibition (TbrCatL; 0’ (pre-incubation time)): 11%; TbrCatL 10’ Inhibition (TbrCatL; 10’ (pre-incubation time)): 11%
COc1ccc(-c2cc(NC(=O)c3ccc(F)cc3Cl)ccc2OC)cc1 [MMV676526] | -17 | -8 | -15 | -15 | 
Cc1cccc(NC(=O)c2cc(S(=O)(=O)N(C)c3ccc(F)cc3)ccc2Cl)n1 [MMV676528] | 3.7 | 6 | -3 | 1.8 | 
COCC(C)NC(=O)CSc1ncnc2sc(-c3ccccc3)cc12 (stereo not shown) [MMV676536] | 18 | 16 | 13 | 33 | 
O=C(NCCc1c[nH]c2ccccc12)c1cc2ccccc2oc1=O [MMV676539] | 14 | 14 | 10 | 20 | 
COc1ccc(Nc2ccccc2NC(=O)c2ccc(=O)[nH]c2)cc1 [MMV676554] | 2.8 | 0.5 | 10 | 4.5 | 
Cc1nnc(NCc2cccc(Cl)c2)c2ccccc12 [MMV676555] | -1.4 | 3.2 | 3 | -4.6 | 
CC1=NN(c2nc3ccccc3s2)C(=O)C1Cc1cccc2ccccc12 (stereo not shown) [MMV676558] | -23 | -18 | -23 | -63 | 
COc1ccc(-c2nc(-c3cccc(NC(=O)Cc4ccc(F)cc4)c3)no2)cc1OC [MMV676571] | 6 | 4 | 8 | 10 | 
O=C(NC1=NCCS1)c1sc2cc(F)ccc2c1Cl [MMV676584] | -2.7 | 9 | -0.5 | -9 | 
Nc1c2c(nc3sc4c(c13)CCCC4)CCCC2 [MMV676588] | 11 | 13 | 14 | 2 | 
O=C(CCC1CCCCC1)Nc1cccc(-c2nnc(-c3ccco3)o2)c1 [MMV676589] | 0 | 4 | 3.3 | 4.4 | 
CCCn1nnc(NC(=O)COc2ccc(C3CCCCC3)cc2)n1 [MMV676597] | 3 | -3.3 | 10 | 10 | 
CC(C)(C)n1nc(Cc2cccc3ccccc23)c2c(N)ncnc21 [MMV676599] |  |  |  |  | Cruzain 0’ Inhibition (cruzain; 0’ (pre-incubation time)): 9%; Cruzain 10’ Inhibition (cruzain; 10’ (pre-incubation time)): 11%; TbrCatL 0’ Inhibition (TbrCatL; 0’ (pre-incubation time)): 4.6%; TbrCatL 10’ Inhibition (TbrCatL; 10’ (pre-incubation time)): -5%
CO[C@@H](C(=O)N1Cc2[nH]nc(NC(=O)c3ccc(N4CCN(C)CC4)cc3)c2C1)c1ccccc1 [MMV676600] | 24 | 12 | 7.5 | 11 | 
CNC(=O)c1nn(C)c2c1C(C)(C)Cc1cnc(Nc3ccc(N4CCN(C)CC4)cc3)nc1-2 [MMV676602] | 0.9 | -6 | 4 | 1.5 | 
C[C@H]1COC2(CCN(c3nc(=O)c4cc(C(F)(F)F)cc([N+](=O)[O-])c4s3)CC2)O1 [MMV676603] | 1.3 | 1.7 | 4.5 | 2.8 | 
Cc1ncc(-c2ccnc(Nc3ccc(S(C)(=O)=O)cc3)n2)n1C(C)C [MMV676604] | 22 | 3.2 | 3 | -26 | 
CC1(O)CC(c2nc(-c3ccc4ccc(-c5ccccc5)nc4c3)c3c(N)nccn23)C1 (stereo not shown) [MMV676605] | 7.4 | -0.9 | 7 | -13 | 
O=C(c1ccc(NCCO)cc1)C1C[C@H]1c1ccc(Cl)cc1 (stereo partly shown) [MMV676877] |  |  |  |  | Cruzain 0’ Inhibition (cruzain; 0’ (pre-incubation time)): 9%; Cruzain 10’ Inhibition (cruzain; 10’ (pre-incubation time)): 5.5%; TbrCatL 0’ Inhibition (TbrCatL; 0’ (pre-incubation time)): 1.1%; TbrCatL 10’ Inhibition (TbrCatL; 10’ (pre-incubation time)): 9%
